Literature values in patent publication US20170049816A1, “Methods of Benchmarking Wellness with a Stable Reactive Oxygen Species Solution” (Reoxcyn Discoveries Group, Inc., priority 2013, published 2017).

Conditions: pH-neutral aqueous solution (pH around 7.0) at room temperature

O=[O+][O-] [dissolved ozone (O3), ozone]
half-life: about 20 min
